{"source": "paper PMC7142710", "about": "“Identification of a Key Enzyme for the Hydrolysis of β-(1→3)-Xylosyl Linkage in Red Alga Dulse Xylooligosaccharide from Bifidobacterium Adolescentis” (Marine Drugs, 2020)", "assay_in_all_cases": "HPLC-RI of hydrolysis products", "assay_type_in_all_cases": "biochemical", "key": {"BAD0428": {"target": "T1, BAD0428 (Bifidobacterium adolescentis, UniProt A1A0H6)", "T1 construct": "gene xynB; full length, N-terminal His-tag (pET28a), no signal peptide, E. coli BL21(DE3), TALON purified", "T1 sequence (A1A0H6 1-543)": "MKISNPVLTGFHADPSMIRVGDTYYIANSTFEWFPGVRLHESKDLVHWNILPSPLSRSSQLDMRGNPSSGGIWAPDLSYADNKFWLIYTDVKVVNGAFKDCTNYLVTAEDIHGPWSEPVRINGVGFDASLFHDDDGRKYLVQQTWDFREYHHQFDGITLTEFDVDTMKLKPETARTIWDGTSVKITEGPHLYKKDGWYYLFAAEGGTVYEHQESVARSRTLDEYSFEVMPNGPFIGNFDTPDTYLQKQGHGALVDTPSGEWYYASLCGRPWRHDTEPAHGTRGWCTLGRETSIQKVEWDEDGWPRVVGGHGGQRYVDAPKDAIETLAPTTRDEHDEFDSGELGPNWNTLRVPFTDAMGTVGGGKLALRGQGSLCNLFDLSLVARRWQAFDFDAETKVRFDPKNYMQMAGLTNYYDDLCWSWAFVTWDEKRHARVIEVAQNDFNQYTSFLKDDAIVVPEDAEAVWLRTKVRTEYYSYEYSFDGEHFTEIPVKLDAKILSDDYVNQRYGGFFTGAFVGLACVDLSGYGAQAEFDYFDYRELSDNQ", "conditions": "10 mM substrate, 50 μg/mL enzyme, 20 mM sodium phosphate pH 6.5, 37 °C, 1 h; product xylose"}, "BAD1527": {"target": "T2, BAD1527 (Bifidobacterium adolescentis, UniProt A1A3M5)", "T2 construct": "gene xynD; full length, N-terminal His-tag (pET28a), no signal peptide, E. coli BL21(DE3), TALON purified", "T2 sequence (A1A3M5 1-345)": "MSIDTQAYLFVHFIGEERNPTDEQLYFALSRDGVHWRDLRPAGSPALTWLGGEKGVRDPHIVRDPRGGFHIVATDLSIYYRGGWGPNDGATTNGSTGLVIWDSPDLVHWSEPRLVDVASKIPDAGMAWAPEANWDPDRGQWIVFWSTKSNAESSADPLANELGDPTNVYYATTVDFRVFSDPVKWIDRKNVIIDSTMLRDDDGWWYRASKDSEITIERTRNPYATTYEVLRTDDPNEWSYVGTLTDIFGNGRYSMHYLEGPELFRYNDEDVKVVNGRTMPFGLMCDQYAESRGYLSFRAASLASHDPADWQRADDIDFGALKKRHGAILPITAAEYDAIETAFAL", "conditions": "10 mM substrate, 50 μg/mL enzyme, 20 mM sodium phosphate pH 6.5, 37 °C, 1 h; weak substrate"}, "BAD0423": {"target": "T3, BAD0423 (Bifidobacterium adolescentis, UniProt A1A0H1)", "T3 construct": "gene BAD_0423; full length, N-terminal His-tag (pET28a), no signal peptide, E. coli BL21(DE3), TALON purified", "T3 sequence (A1A0H1 1-564)": "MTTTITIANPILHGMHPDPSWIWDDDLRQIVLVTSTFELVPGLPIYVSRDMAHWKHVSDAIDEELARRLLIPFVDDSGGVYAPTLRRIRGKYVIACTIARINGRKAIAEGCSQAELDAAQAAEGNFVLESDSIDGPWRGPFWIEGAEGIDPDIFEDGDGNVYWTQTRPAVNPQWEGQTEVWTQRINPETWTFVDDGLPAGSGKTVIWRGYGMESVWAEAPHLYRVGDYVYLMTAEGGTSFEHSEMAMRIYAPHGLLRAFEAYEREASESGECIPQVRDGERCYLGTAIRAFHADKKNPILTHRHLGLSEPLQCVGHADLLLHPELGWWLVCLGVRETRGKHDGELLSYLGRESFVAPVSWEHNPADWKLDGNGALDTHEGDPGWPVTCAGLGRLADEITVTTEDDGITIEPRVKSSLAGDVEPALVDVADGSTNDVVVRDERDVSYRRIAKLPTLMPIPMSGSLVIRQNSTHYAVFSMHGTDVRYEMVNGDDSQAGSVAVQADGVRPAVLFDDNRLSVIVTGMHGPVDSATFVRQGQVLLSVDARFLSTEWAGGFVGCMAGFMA", "conditions": "10 mM substrate, 50 μg/mL enzyme, 20 mM sodium phosphate pH 6.5, 37 °C, 1 h; products xylose and xylobiose"}}}
{"smiles": "OC1OC[C@@H](O[C@@H]2OC[C@@H](O)[C@H](O[C@@H]3OC[C@@H](O)[C@H](O)[C@H]3O)[C@H]2O)[C@H](O)[C@H]1O", "note": "(stereo partly drawn) [DX3, 2^3-β-D-xylosyl-xylobiose]", "values": [{"measurement": "specific activity", "setting": "BAD0428", "value": "specific activity of BAD0423, BAD0428, and BAD1527 on DX3 was determined by HPLC"}, {"measurement": "specific activity", "setting": "BAD1527", "value": "specific activity of BAD0423, BAD0428, and BAD1527 on DX3 was determined by HPLC"}, {"measurement": "specific activity", "setting": "BAD0423", "value": "BAD0423 showed low activities on X2 and X3 but high activity on DX3"}]}
